From US20110081428A1, “Use of thioflavin-like compounds to increase life span and/or health span” (priority 2009, published 2011)

Experiments:
[1] = test system: aggregation-prone soluble oligomeric protein (A11 antibody) in CL4176; test: A11 immunolocalization of soluble oligomeric protein, CL4176; type: in vivo, Caenorhabditis elegans; conditions: CL4176, 50 μM ThT
Protocol: (§1) For fluorescent microscopy, TJ356 zIs356 IV [daf-16::daf-16-gfp+rol-6] or CF2189 Is001(skn-1::gfp+rol-6) were paralyzed with 1 mM levamisole mounted on 1% agarose pads and imaged using Olympus BX51 (60× objective) and HCImage software (Hamamatsu). For immunofluorescence, N2, […], CB1157 unc-54(e1157) or CL4176 dvIs27 [myo-3::Aβ(3 to 42)-let 3′UTR(pAF29); pRF4 (rol-6(su1006))] worms were treated for 24-36 h with or without 50 μM ThT at 25° C. After this period the worms were collected, rinsed, and fixed in 4% paraformaldehyde overnight. […] Paramyosin and perlecans were detected with primary monoclonal antibodies 5-23 and MH3 (developed by Henry Epstein and Robert H. Waterston and obtained from the Developmental Studies Hybridoma Bank developed under the auspices of the NICHD and maintained by The University of Iowa, Department of Biology, Iowa City, Iowa 52242) and AlexaFluor 633 goat anti-mouse (Molecular Probes) as secondary antibody. Soluble oligomers and Aβ peptide were detected with anti polyclonal All (Invitrogen) and 6E10 monoclonal (Covance) primary antibodies, respectively, with AlexaFluor 568 goat anti-rabbit and AlexaFluor 488 goat anti-mouse (Molecular Probes) as secondary antibodies. Images were processed and quantified by using Image Analyst MK II (Novato, Calif.).

[2] = test system: aggregation-prone soluble oligomeric protein (A11 antibody) in N2; test: A11 immunolocalization of soluble oligomeric protein, N2; type: in vivo, Caenorhabditis elegans; conditions: N2, 11 days old, 50 μM ThT
Protocol: as §1

unc-54 RNA = test: Real time quantitative PCR, unc-54; type: in vivo, Caenorhabditis elegans; conditions: 50 μM ThT, 3, 6 and 12 days of treatment
Protocol: Twelve single adults from control or 50 μM ThT populations were picked after 3, 6 and 12 days of treatment into 5 μl of distilled water and flash frozen until extraction. Individual worms were extracted using the RNeasy Micro Kit, TissueLyser and QIAcube (Qiagen). Using the manufacturer's standard Animal Tissue protocol, each sample was homogenized in buffer RLT/Bme (Qiagen) on the TissueLyser (6 min total at 20 Hz). Samples, reagents and columns were then loaded into the QIAcube robot, and processed using the “RNeasy Micro—Animal tissues and cells—DNase digest” program. Each sample was then eluted in 14 μl of Nuclease-free water. cDNA templates for the Real Time PCR reactions were made using a combination of Message Sensor RT kit (Ambion's) and TaqMan PreAmp Master Mix (Applied Biosystems). The entire worm sample was added to the RT reaction and reversed transcribed at 50° C. for 20 min, using Message Sensor's “Two Step RT-PCR Protocol” (sample RT's were randomized). Then 2.5 μl of the cDNA sample was pre-amplified with a “4×Multiplex Primer Mix” for 14 cycles using TaqMan PreAmp master mix and protocol (ABI). Two modifications were made to ABI's protocol: 1. the reaction volume was reduced to 10 μl and 2. after pre-amplification, each cDNA sample was diluted 1:5 with 1XTE Buffer (Promega). cDNA samples were stored at −20° C. until needed. […]

CF1038 [daf-16(mu86)I] = test: Lifespan assay, daf-16 mutant; type: in vivo, Caenorhabditis elegans; conditions: 50 μM ThT, 100 μM curcumin
Protocol: Lifespan assays were performed as described previously. (McColl, G. et al. Pharmacogenetic analysis of lithium-induced delayed aging in Caenorhabditis elegans. J Biol Chem 283, 350-357 (2008). Briefly, the nematode growth media (NGM) plates were prepared under sterile conditions. 100 μL of concentrated stocks of each of the compounds used in this study were added onto a previously prepared NGM small plate (3 mL volume) immediately spread over the surface of the plate. The final concentrations quoted in the text assume an even distribution of compound throughout the 3 ml plate. The plates were then placed in a laminar flow hood at room temperature for 30 min and then 60 μL of a concentrated suspension of E. coli OP50 was spotted to form a circular lawn on the center of each plate. Thirty late L4 larvae growing at 20° C. were transferred to fresh NGM plates with FUdR (75 μM) in presence or absence of the specified compounds and incubated at 20° C. The first day of adulthood is Day 3 in survival curves. There was between-experiment variation in the magnitude of the lifespan extension observed with ThT which appeared to correlate with different suppliers and batches. ThT concentration should be optimized depending on batch and purity and stability of the compound. […]
Animals were scored as alive, dead or lost every other day. […]

[3] = test system: N2 worms raised on 1×10^9 cfu/ml; test: Lifespan under dietary restriction (diluted bacterial food); conditions: 20° C.
Protocol: Plates were prepared as described (Chen, D., Thomas, E. L. & Kapahi, P. HIF-1 modulates dietary restriction-mediated lifespan extension via IRE-1 in Caenorhabditis elegans. PLoS Genet. 5, e1000486, (2009), but bacterial concentration was adjusted to 1.0×10^12 cfu/ml and diluted to achieve bacterial concentration of 1.0×10^9 cfu/ml. Diluted bacterial cultures were spotted onto DR agar plates, which were modified from the standard nematode growth media (NGM) plates by excluding peptone and increasing agar from 1.7% to 2.0%. Carbenicillin ([…]) was added to the agar plates to further prevent bacterial growth. Synchronized L4 larvae grown under standard lab conditions (NGM plates with OP50 food, 20° C.) were transferred to fresh DR agar plates in presence or absence of 1, 10, 25, 50 and 100 μM ThT and lifespans scored as described above.

Q: Which results are given for `Cc1ccc2c(c1)sc(-c1ccc(N(C)C)cc1)[n+]2C.[Cl-]` [ThT, 4-(3,6-dimethyl-1,3-benzothiazol-3-ium-2-yl)-N,N-dimethylaniline chloride]?
A: A11-positive oligomeric material [1]: significantly decreased; A11-positive oligomeric material [2]: significantly decreased; unc-54 RNA levels (unc-54 RNA): increases unc-54 RNA levels after 3, but not at 6 or 12 days of treatment; lifespan of daf-16(mu86) mutant (CF1038 [daf-16(mu86)I]): extended the lifespan; lifespan in bacterial dilution DR model ([3]; 50 μM ThT): detrimental to lifespan; increase in lifespan in bacterial dilution DR model ([3]; 1 and 10 μM ThT): 24%
